Square brackets hold non-standard residues; d marks the D form. Peptide text beside a SMILES is read from it. * marks the point of attachment. Trp(1-Me) = Cn1cc(C[C@H](N)C(=O)O)c2ccccc21; Tic = O=C(O)[C@@H]1Cc2ccccc2CN1; pGlu = O=C1CC[CH](C(=O)O)N1; Hyp = O=C(O)[CH]1C[CH](O)CN1; Phg = N[CH](C(=O)O)c1ccccc1; ΔPro = O=C(O)[C@@H]1C=CCN1; Pip = O=C(O)[C@@H]1CCCCN1; αMeP = C[C]1(C(=O)O)CCCN1; Cbz = O=C(OCc1ccccc1)*; Aze = O=C(O)[CH]1CCN1; Boc = CC(C)(C)OC(=O)*
How the values were obtained:
[1] = analgesic activity, test not specified (Hot Plate and Writhing Tests); format: in vivo; conditions: test and dose not stated
Description: (§1) In the following examples will first of all be given the data necessary for synthesis of the compounds according to the present invention. There will then be given data regarding their pharmacological activity, using methods widely known to be valid. In particular, for the pressure tests, spontaneously hyper-tensive rats were used (SHR from the company Charles River), operated in such a way as to enable pressure to be read even when the animals were awake and free to move. In order to evaluate the analgesic activity, the Hot Plate and Writhing Tests were used. For the anti-inflammatory effect the test of carraginine edema was used. Finally, for immuno-modulating activity the evaluation of the stimulation of growth of human lymphocytes in culture was resorted to, after the addition of specific antigens. The results obtained for each synthesized compound are given at the end of each example.

[2] = Hot Plate test (analgesic activity); format: in vivo
Description: as §1

[3] = Writhing test (analgesic activity); format: in vivo; conditions: dose not stated
Description: as §1

[4] = test system: human lymphocytes in culture; experiment: stimulation of growth of human lymphocytes in culture after addition of specific antigens; format: cell-based; conditions: for immune response (immuno-stimulating activity): antigen not stated
Description: as §1

[5] = test system: spontaneously hyper-tensive rats (SHR); experiment: pressure tests in awake spontaneously hypertensive rats; format: in vivo
Description: as §1

carraginine edema = carraginine edema test (anti-inflammatory effect); format: in vivo; conditions: dose not stated
Description: as §1

| SMILES | immune response (immuno-stimulating activity) [4] | anti-inflammatory effect (carraginine edema) | anti-hypertensive effect ([5]; dose not stated) | other results |
| --- | --- | --- | --- | --- |
| COC[C@H](Cc1ccccc1)NC(=O)[C@H](C)NC(=O)[C@@H]1CCCN1C(=O)OCc1ccccc1 [compound 6, Z-(L)-Pro-(L)-Ala-(L)-Pme] | more consistent | rather weak | – | analgesic activity [1]: good analgesic activity; extension of time in the Hot Plate test ([2]; dose not stated): 25%; reduction of contorsions during the Writhing test [3]: 70%; anti-hypertensive effect ([5]; 2 mg/Kg i.v.): good anti-hypertensive activity; reduction of pressure ([5]; 2 mg/Kg i.v., after one hour): approximately 25% |
| COC(=O)C(Cc1c[nH]c2ccccc12)NC(=O)C(CC(C)C)NC(=O)C1CCN1C(=O)OCc1ccccc1 [compound 17, Z-(S)-Aze-(L)-Leu-(L)-TrpOMe] (Cbz-[Aze]-Leu-Trp-OMe; configuration not given here) | – | bland anti-inflammatory activity | slight anti-hypertensive effect | – |
| COC(=O)[C@H](Cc1c[nH]c2ccccc12)NC(=O)[C@H](CC(C)C)NC(=O)[C@@H]1CCCCN1C(=O)OCc1ccccc1 [compound 15, Z-(L)-Pip-(L)-Leu-(L)-TrpOMe] (Cbz-[Pip]-Leu-Trp-OMe) | slight increase in immune response | consistent | – | anti-hypertensive effect ([5]; 2 mg/Kg i.v.): good anti-hypertensive effect; reduction of pressure ([5]; 2 mg/Kg i.v.): up to 30% |
| COC[C@H](Cc1ccccc1)NC(=O)CNC(=O)[C@@H]1CCC(=O)N1 [compound 23, (L)-Pyr-Gly-(L)-Pme] | good immuno-stimulating effect | – | – | analgesic activity [1]: excellent analgesic effect; reduction of contorsions during the Writhing test [3]: 80%; anti-hypertensive effect ([5]; 8 mg/Kg i.p.): good anti-hypertensive activity |
| COC(=O)C(Cc1c[nH]c2ccccc12)NC(=O)C(CC(C)C)NC(=O)C1(C)CCCN1C(=O)OC(C)(C)C (stereo not drawn) [compound 12, Boc-(L)-Mep-(L)-Leu-(L)TrpOMe] (Boc-[αMeP]-Leu-Trp-OMe; configuration not given here) | – | reduction of the inflammatory response | bland anti-hypertensive effect | – |
| COC(=O)[C@@H]1Cc2c([nH]c3ccccc23)CN1C(=O)[C@H](CC(C)C)NC(=O)[C@@H]1CCC(=O)N1C(=O)OCc1ccccc1 [compound 20, Z-(L)-Pyr-(L)-Leu-(S)-CytOMe] | – | fair anti-inflammatory activity | bland anti-hypertensive activity | – |
| COC(=O)[C@H](Cc1cn(C)c2ccccc12)NC(=O)[C@H](C)NC(=O)[C@@H]1CCCN1C(=O)OCc1ccccc1 [compound 7, Z-(L)-Pro-(L)-Ala-(1)-Me-(L)-TrpOMe] (Cbz-Pro-Ala-[Trp(1-Me)]-OMe) | – | – | – | anti-hypertensive effect ([5]; 2 mg/Kg i.v.): good anti-hypertensive effect; reduction of pressure ([5]; 2 mg/Kg i.v.): 10% |
| C[C@H](NC(=O)[C@@H]1CCCN1C(=O)OCc1ccccc1)C(=O)NCCc1c[nH]c2ccccc12 [compound 2, Z-(L)-Pro-(L)-Ala-TrpH] | increased, but to a lesser extent than in the previous compound | – | comparable to that of compound 1 | – |
| COC(=O)C(Cc1c[nH]c2ccccc12)NC(=O)C(CC(C)C)NC(=O)C1CCCN1C.Cl (centres unmarked) [compound 10, N-Me-(L)-Pro(L)-Leu-(L)-TrpOMe.HCl] | slightly increased | – | – | analgesic activity [1]: low analgesic effect; anti-hypertensive effect ([5]; 2 mg/Kg i.v.): excellent anti-hypertensive effect |
| COC(=O)[C@@H]1Cc2ccccc2CN1C(=O)CNC(=O)[C@@H]1CCC(=O)N1 [compound 24, (L)-Pyr-Gly-(L)-CypOMe] ([pGlu]-Gly-[Tic]-OMe) | – | moderate anti-inflammatory action | bland anti-hypertensive action | – |
| COC(=O)C(NC(=O)CNC(=O)C1CCC(=O)N1)c1ccccc1 (stereo not drawn) [compound 22, (L)-Pyr-Gly-(L)-PhgOMe] ([pGlu]-Gly-[Phg]-OMe; configuration not given here) | appears to increase the immune response | very good | – | anti-hypertensive effect ([5]; 4 mg/Kg i.p.): excellent anti-hypertensive activity; reduction of pressure values ([5]; 4 mg/Kg i.p.): 20%; reduction of edema (carraginine edema): 70% |
| COC(=O)[C@@H]1Cc2c([nH]c3ccccc23)CN1C(=O)[C@H](CC(C)C)NC(=O)[C@@H]1CCC(=O)N1 [compound 25, (L)-Pyr-(L)-Leu-(S)-CytOMe] | – | – | bland anti-hypertensive effect | analgesic activity [1]: weak analgesic activity |
| COC(=O)[C@H](Cc1c[nH]c2ccccc12)NC(=O)[C@H](CC(C)C)NC(=O)[C@@H]1C=CCN1C(=O)OC(C)(C)C [compound 13, Boc-.gradient.^3.4 -(L)-Pro-(L)-Leu-(L)-TrpOMe] (Boc-[ΔPro]-Leu-Trp-OMe) | slightly increases the immune response | – | slightly anti-hypertensive | – |
| COC(=O)[C@@H]1Cc2ccccc2CN1C(=O)[C@H](C)NC(=O)[C@@H]1CCCN1C(=O)OCc1ccccc1 [compound 11, Z-(L)-Pro-(L)-Ala-CypOMe] (Cbz-Pro-Ala-[Tic]-OMe) | – | moderate anti-inflammatory effect | slight anti-hypertensive effect | – |
| CCOC(=O)[C@@H]1Cc2c([nH]c3ccccc23)CN1C(=O)[C@H](C)NC(=O)[C@@H]1CCCN1C(=O)OCc1ccccc1 [compound 1, Z-(L)-Pro-(L)-Ala-(S)-CytOEt] | – | – | – | pain killing effect under the Hot Plate test ([2]; 4 mg/Kg i.p.): slight pain killing effect; response of lymphocytes stimulated by phytohemoagglutinine (PHA) ([4]; PHA stimulation): increases the response of lymphocytes; anti-hypertensive effect ([5]; 4 mg/Kg i.p.): good anti-hypertensive effect; duration of the anti-hypertensive effect ([5]; 4 mg/Kg i.p.): maintained for a number of hours |
| COC(=O)[C@H](Cc1ccc(OC)cc1)NC(=O)[C@H](C)NC(=O)[C@@H]1CCCN1C(=O)OCc1ccccc1 [compound 4, Z-(L)-Pro-(L)-Ala-(L)-OmtOMe] (Cbz-Pro-Ala-Tyr(Me)-OMe) | slightly increased | – | – | anti-hypertensive effect ([5]; 8 mg/Kg i.v.): bland anti-hypertensive effect |
| COC(=O)[C@@H]1Cc2ccccc2CN1C(=O)[C@H](CC(C)C)NC(=O)[C@@H]1CCC(=O)N1C(=O)OCc1ccccc1 [compound 21, Z-CL)-Pyr-(L)-Leu-(S)-CypOMe] | good immuno-stimulating activity | – | slight anti-hypertensive activity | – |
| COC(=O)[C@H](Cc1c[nH]c2ccccc12)NC(=O)[C@H](CC(C)C)NC(=O)[C@@H]1CCCO1 [compound 18, (S)-Tfc-(L)-Leu-(L)-TrpOMe] | stimulates the immune response in a moderate manner | – | bland anti-hypertensive effect | – |
| COC(=O)[C@H](Cc1c[nH]c2ccccc12)NC(=O)[C@H](CC(C)C)NC(=O)[C@@H]1Cc2ccccc2N1C(=O)OCc1ccccc1 [compound 14, Z-(S)-Dhi-(L)-Leu-(L)-TrpOMe] | – | – | bland reduction of pressure | analgesic activity [1]: moderate analgesic effect |
| COC(=O)[C@H](Cc1c[nH]c2ccccc12)NC(=O)[C@H](CC(C)C)NC(=O)c1ccc[nH]1 [compound 9, 2-Pyrrolyl-(L)-Leu-(L)-TrpOMe] | – | bland reduction of inflammatory responses | slight effect on pressure | – |
| COC(=O)C(Cc1c[nH]c2ccccc12)NC(=O)C(CC(C)C)NC(=O)C1CC(O)CN1C(=O)OCc1ccccc1 (stereo not drawn) [compound 16, Z-(L)-Hyp-(L)-Leu-(L)-TrpOMe] (Cbz-[Hyp]-Leu-Trp-OMe; configuration not given here) | – | – | bland anti-hypertensive action | analgesic activity [1]: modest analgesic effect |
| COC(=O)[C@H](Cc1c[nH]c2ccccc12)NC(=O)[C@H](CC(C)C)NC(=O)c1ccco1 [compound 8, 2-Fur-(L)-Leu-(L)-TrpOMe] | strongly stimulated even with small doses of peptide | slight anti-inflammatory effect | – | anti-hypertensive effect ([5]; 4 mg/Kg i.v.): slight anti-hypertensive effect |
| COC(=O)[C@@H](NC(=O)[C@H](C)NC(=O)[C@@H]1CCCN1C(=O)OCc1ccccc1)c1ccccc1 [compound 5, Z-(L)-Pro-(L)-Ala-(L)-PhgOMe] (Cbz-Pro-Ala-[Phg]-OMe) | – | – | – | analgesic effect using the Hot Plate test ([2]; dose not stated): moderate analgesic effect; anti-hypertensive effect ([5]; 8 mg/Kg i.p.): bland anti-hypertensive effect |
| C[C@H](NC(=O)[C@@H]1CCCN1C(=O)OCc1ccccc1)C(=O)N1CCc2c([nH]c3ccccc23)C1 [compound 3, Z-(L)-Pro-(L)-Ala-CytH] | – | – | – | anti-hypertensive effect ([5]; 8 mg/Kg i.p.): bland anti-hypertensive effect |
| COC(=O)[C@H](Cc1c[nH]c2ccccc12)NC(=O)[C@H](CC(C)C)NC(=O)[C@@H]1CCC(=O)N1C(=O)OCc1ccccc1 [compound 19, Z-(L)-Pyr-(L)-Leu-(L)-TrpOMe] | – | fair anti-inflammatory activity | slight anti-hypertensive effect | – |

Reference: patent US5504071A, “Compounds with a sequence of three radicals, the central one being α- a” (Polifarma S.p.A., priority 1990, dated 1996)
